Data on 14 compounds can be found in paper PMC10818546, “CYP1-Activation and Anticancer Properties of Synthetic Methoxylated Resveratrol Analogues” (Molecules, 2024).

One assay deals with MCF7. Briefly: MTT cytotoxicity assay, MCF7 cells (uninduced). It is filed as cell-based, human. To be noted: MTT assay, 96 h incubation, 37 °C, means of quadruplicate, read-out: IC50 MCF7. Here is the method:
(§1) The antiproliferative activity of the resveratrol analogues was investigated using a human breast cell line panel, which has been characterised for CYP1 expression in our laboratories. IC50 values for both cis- and trans-isomers were determined using a standard 3-[4,5-dimethylthiazol-2-yl]-2,5-diphenyl tetrazolium bromide (MTT) cell viability assay and are shown in Table 1 (trans-stilbene analogues) and Table 2 (cis-stilbene analogues).
(§2) MCF7 cells are both ER positive and Ah receptor positive and have been well documented for their CYP1 expression, and it is known that treatment with TCDD elevates CYP1A1 and CYP1B1 expression. The cells were treated with DMSO (0.1%) for 24 h for constitutive expression, whereas for inducible CYP1 expression, the cells were treated with TCDD (10 nM) for 24 h.
(§3) A standard MTT (3-[4,5-dimethylthiazol-2-yl]-2,5-diphenyl tetrazolium bromide) cell viability assay was employed to evaluate the cytotoxicity of the stilbenes prepared. The MTT assay is a rapid quantitative spectrophotometric method for determining cell growth (viability) due to necrosis or apoptosis in monolayer-cultured cell lines in response to external factors. It is widely employed to evaluate the cytotoxicity of potential medicinal agents.
(§4) MCF7 cells were grown in RPMI-1640 medium with phenol red and 10% (v/v) heat-inactivated (heated to 56 °C for 45 min) foetal calf serum. MDA-468 cells were grown in RPMI-1640 medium with 10% (v/v) heat-inactivated foetal calf serum and L-glutamine (2 mM) without phenol red. MCF-10A cells were grown in Dulbecco’s modified Eagle’s medium/ Ham’s F-12 medium (1:1) with 5% (v/v) heat-inactivated foetal calf serum, epidermal growth factor (20 ng/mL), insulin ([…]) and hydrocortisone (500 ng/mL). Cells were maintained at 37 °C, 5% CO2/95% air with 100% humidity and passaged every 2–3 days using trypsin EDTA solution (0.25% w/v). Adhered cells at sub confluence were harvested for experimental use.
(§5) Aliquots of cell suspensions (100 µL at 2 × 10^3 cells per ml) were dispensed into sterile 96-well microtiter flat-bottomed plates. For the MDA468 and MCF10A cell lines, the plates were incubated at 37 °C, 5% CO2/95% air with 100% humidity for 24 h prior to the addition of test compounds. For MCF7 cells, after allowing approximately 4 h for cells to adhere, 100 µL of medium containing TCDD (from 100 mM stock in DMSO) or medium with 0.2% (v/v) DMSO was added to give a final concentration of 10 nM TCDD and 0.1% (v/v) DMSO. After 24 h, the medium was aspirated and replaced with fresh medium (100 µL) before the addition of test compounds.
(§6) Then, 100 µL aliquots of test compounds were added within 30 min into the wells from a 100 mM stock solution in DMSO and serially diluted to give final concentrations of […], 0.01, 0.003, 0.001 and 0.0003 µM. […] The cells were allowed to grow for 96 h at 5% CO2, 37 °C, to give 80–90% confluence in the control wells, after which 50 µL of 2 mg/mL MTT (final concentration 0.4 mg/mL) in sterile phosphate buffer was added to each well and the plates were further incubated for 2 h. All medium was aspirated and the formazan precipitate generated by viable cells was solubilised by 150 µL of DMSO. All the plates were vortexed and the absorbance at 540 nm was determined using a SpectraMax M5 plate reader (Molecular Devices, Wokingham, UK).
(§7) Results were expressed as a percentage of the control value versus the negative logarithm of the molar drug concentration range using GraphPad Prism (Version 5.00). Relative toxicities of each compound within each cell line were expressed as 50% of growth inhibition (IC50). All determinations were carried out in quadruplicate.

The next assay has as its system MCF7 (TCDD). The experiment in a line: MTT cytotoxicity assay, TCDD-induced MCF7 cells. The assay is classed as cell-based, human. The note with it: for IC50: 96 h incubation, cells induced with 10 nM TCDD for 24 h, read-out: IC50 MCF7 (TCDD). As to the method: as §1, §2, §3, §4, §5, §6, §7
(Formazan colour is commonly taken as a measure of viable cells.)

The next assay concerns MCF10A. Briefly: MTT cytotoxicity assay, MCF10A non-tumour control cells. The assay is classed as cell-based. To be noted: Homo sapiens, MCF-10A, MTT assay, 96 h incubation, non-tumour control cells, read-out: IC50 MCF10A. Here is the method:
as §1
MCF10A cells are non-tumourigenic human mammary epithelial in origin which have been spontaneously immortalised without chemical intervention. CYP1 activity in MCF10A cells is negligible. […] Thus, MCF10A cell line is commonly used as a control in cytotoxicity assays.
as §3, §4, §5, §6, §7

A further assay concerns MDA468. The experiment in a line: MTT cytotoxicity assay, MDA468 cells. The assay is classed as cell-based, human. The note with it: for IC50: Homo sapiens, MTT assay, 96 h incubation, read-out: IC50 MDA468; for TS = tumour selectivity = IC50 MCF10A/IC50 MDA468: ratio of IC50 values. Here is the method:
as §1
MDA468 cells represent an aggressive multi-drug-resistant tumour type and are ER negative but are aryl hydrocarbon (Ah) receptor positive in the presence of TCDD [46].
as §3, §4, §5, §6, §7

The subject of assay [1] is human breast cell line panel. The experiment in a line: MTT cytotoxicity assay, statements for all cell lines of the panel. To be noted: MCF7, MCF7 (TCDD), MCF10A, MDA468, summary of the text; for IC50: Homo sapiens, read-out: IC50 for all cell lines tested. The assay is classed as cell-based. As to the method:
as §1, §3, §4, §5, §6, §7

By IC50 is commonly meant the concentration that inhibits the measured activity by half.

Read-outs that look alike come from different tables or passages of the source.

As for `COc1cc(/C=C/c2ccccc2)cc(OC)c1OC` [DMU507], the IC50 was 50 µM in the assay on MCF7 (Homo sapiens, MCF7, 96 h); 50 µM in the assay with MCF7 (TCDD) (Homo sapiens, MCF7, MTT assay); 70 µM in the assay on MCF10A (96 h); 10 µM with MDA468; > 10 µM in assay [1]. The “TS = tumour selectivity = IC50 MCF10A/IC50 MDA468” value in the assay on MDA468 is given as 7.

Regarding `COc1ccc(/C=C/c2cc(OC)c(OC)c(OC)c2)cc1OC` [DMU2417], the 50% inhibitory concentration (IC50) with MCF7 (Homo sapiens, MCF7, 96 h) was 14 µM; with MCF7 (TCDD) (Homo sapiens, MCF7, MTT assay), 14 µM; in the assay on MCF10A (96 h) it was 18 µM; in the assay on MDA468 it was 9 µM; in assay [1] it was > 9 µM. For the same compound, in the assay on MDA468, the “TS = tumour selectivity = IC50 MCF10A/IC50 MDA468” value is listed as 2.

Take `COc1cc(C=Cc2ccc(O)c(O)c2)cc(OC)c1OC` [DMU283, 3,4,5-trimethoxy-3′,4′-dihydroxy stilbene]: the IC50 amounted to 0.02 µM with MCF7 (Homo sapiens, MCF7, 96 h); 0.14 µM in the assay on MCF7 (TCDD) (Homo sapiens, MCF7, MTT assay); 0.008 µM with MCF10A (96 h); 0.05 µM in the assay with MDA468. Besides, the “TS = tumour selectivity = IC50 MCF10A/IC50 MDA468” value in the assay with MDA468 worked out at 0.16. Moreover, the “IC50 for all cell lines tested” value in assay [1] is listed as “sub-micromolar IC50 values”.

On to `COc1cc(/C=C\c2ccccc2)cc(OC)c1OC` [DMU508], for which the IC50 with MCF7 (Homo sapiens, MCF7, 96 h) is 5 µM; in the assay on MCF7 (TCDD) (Homo sapiens, MCF7, MTT assay), 4 µM; with MCF10A (96 h), 7 µM; in the assay on MDA468, 9 µM; in assay [1], 4 to 9 µM. The “TS = tumour selectivity = IC50 MCF10A/IC50 MDA468” value in the assay with MDA468 was 0.9.

`COc1ccc(C=Cc2cc(OC)c(OC)c(OC)c2)cc1O` [DMU214, 3,4,5,4′-tetramethoxy-3′-hydroxy stilbene]: the half-inhibitory concentration (IC50) came to 0.06 µM in the assay on MCF7 (Homo sapiens, MCF7, 96 h); 0.11 µM with MCF7 (TCDD) (Homo sapiens, MCF7, MTT assay); 0.05 µM in the assay on MCF10A (96 h); 0.05 µM in the assay on MDA468. Further, the “TS = tumour selectivity = IC50 MCF10A/IC50 MDA468” value with MDA468 was 1. Further, the “IC50 for all cell lines tested” value in assay [1] is listed as “sub-micromolar IC50 values”.

Take `COc1ccc(/C=C\c2cc(OC)c(OC)c(OC)c2)cc1O` [CA4, combretastatin A4, reference compound]: the 50% inhibitory concentration (IC50) turned out to be 0.002 µM with MCF7 (Homo sapiens, MCF7, 96 h); 0.002 µM with MCF7 (TCDD) (Homo sapiens, MCF7, MTT assay); 0.002 µM with MCF10A (96 h); 0.003 µM with MDA468. For the same compound, the “TS = tumour selectivity = IC50 MCF10A/IC50 MDA468” value with MDA468 was found to be 0.7.

In the case of `COc1ccc(/C=C/c2cc(OC)c(OC)c(OC)c2)c(OC)c1` [DMU219], the IC50 with MCF7 (Homo sapiens, MCF7, 96 h) was 1.7 µM; with MCF7 (TCDD) (Homo sapiens, MCF7, MTT assay) it was 1.4 µM; in the assay with MCF10A (96 h), 1.4 µM; with MDA468, 0.8 µM. In addition, the “TS = tumour selectivity = IC50 MCF10A/IC50 MDA468” value with MDA468 is 2.

`COc1cc(/C=C/c2ccc(Br)cc2)cc(OC)c1OC` [DMU557]: the 50% inhibitory concentration (IC50) was found to be 7 µM in the assay with MCF7 (Homo sapiens, MCF7); 8 µM with MCF7 (TCDD) (Homo sapiens, MCF7, MTT assay); 20 µM in the assay on MCF10A; 7 µM in the assay with MDA468. For the same compound, the “TS = tumour selectivity = IC50 MCF10A/IC50 MDA468” value with MDA468 is recorded as 3.

Consider `COc1ccc(/C=C\c2cc(OC)c(OC)c(OC)c2)c(OC)c1` [DMU222], for which the IC50 with MCF7 (Homo sapiens, MCF7, 96 h) came out at 0.06 µM; with MCF7, 0.07 µM; in the assay on MCF7 (TCDD) (Homo sapiens, MCF7, MTT assay) it was 0.005 µM; in the assay on MCF7 (TCDD) (MTT assay), 0.007 µM; in the assay on MCF10A (96 h), 0.06 µM; with MDA468 it was 0.005 µM. The “TS = tumour selectivity = IC50 MCF10A/IC50 MDA468” value in the assay with MDA468 is recorded as 10.

`COc1cc(/C=C\c2ccc3c(c2)OCO3)cc(OC)c1OC` [DMU299]: the concentration for half-maximal inhibition (IC50) in the assay on MCF7 (Homo sapiens, MCF7) came to 0.05 µM; in the assay on MCF7 (TCDD) (Homo sapiens, MCF7, MTT assay), 0.05 µM; with MCF10A, 20 µM; in the assay on MDA468, 20 µM. Besides, in the assay on MCF7 (TCDD) (ratio of IC50 values), the “AF = activation factor = IC50 MCF7/MCF7 (TCDD)” value was “one”. Besides, the figures for the “TS = tumour selectivity = IC50 MCF10A/IC50 MDA468” value with MDA468 and with MDA468 (listed as 299) were “one” and 1, respectively.

`COc1ccc(/C=C/c2ccc(OC)c(OC)c2OC)cc1` [DMU547]: the IC50 with MCF7 (Homo sapiens, MCF7) is 80 µM; with MCF7 (TCDD) (Homo sapiens, MCF7, MTT assay) it was 1 µM; in the assay with MCF10A it was 20 µM; with MDA468, 4.5 µM. For the same compound, the “TS = tumour selectivity = IC50 MCF10A/IC50 MDA468” value in the assay on MDA468 was determined as 4.

For `COc1ccc(/C=C/c2cc(OC)c(O)c(OC)c2)cc1O` [DMU293], the IC50 came out at 100 µM with MCF7 (Homo sapiens, MCF7, 96 h); 100 µM in the assay on MCF7 (TCDD) (Homo sapiens, MCF7, MTT assay); 110 µM in the assay on MCF10A (96 h); 10 µM in the assay with MDA468. Besides, the “TS = tumour selectivity = IC50 MCF10A/IC50 MDA468” value in the assay with MDA468 is 10.

Consider `COc1cc(/C=C/c2ccc(O)cc2)cc(OC)c1O` [DMU295], for which the 50% inhibitory concentration (IC50) is 50 µM in the assay on MCF7 (Homo sapiens, MCF7, 96 h); 4.2 µM in the assay on MCF7 (TCDD) (Homo sapiens, MCF7, MTT assay); 51 µM in the assay with MCF10A (96 h); 5.1 µM with MDA468. In addition, the “TS = tumour selectivity = IC50 MCF10A/IC50 MDA468” value in the assay on MDA468 is reported as 10.

On to `COc1cc(/C=C/c2ccc(OC)c3ccccc23)cc(OC)c1OC` [DMU569], for which the concentration for half-maximal inhibition (IC50) with MCF7 (Homo sapiens, MCF7) amounted to 30 µM; in the assay on MCF7 (TCDD) (Homo sapiens, MCF7, MTT assay), 8.6 µM; in the assay on MCF10A it was 40 µM; with MDA468, 4.5 µM. The “TS = tumour selectivity = IC50 MCF10A/IC50 MDA468” value was “nine” with MDA468 and 9 with MDA468 (listed as 569).
